One data set concerns NCI-H727 cells. The data set can be described thus: NCI-H727 CTG proliferation assay (120 h) (lung cancer, G12V). It is filed as cell-based. The settings on record: Homo sapiens. The method, then:
(§1) NCI-H727 cells (ATCC No. CRL-5815) are dispensed into black 384-well plates, flat and clear bottom (Greiner, PNr. 781091) at a density of 500 cells per well in 60 μl RPMI ATCC-Formulation (PAN P04-18047)+10% FCS (fetal calf serum, HyClone, SH30084.03). Cells are incubated overnight at 37° C. in a humidified tissue culture incubator at 5% CO2. Compounds (10 mM stock in DMSO) are added at logarithmic dose series using the ECHO acoustic liquid handler system (Beckman Coulter), normalizing for added DMSO and including DMSO controls. All compound treatments are performed in technical duplicates. For the TO time point measurement, untreated cells are analyzed at the time of compound addition. Plates are incubated for 120 h, and cell viability is measured using CellTiter-Glo luminescent cell viability reagent (Promega product code G7570). Viability (stated as percent of control) is defined as relative luminescence units RLU of each well divided by the RLU of cells in DMSO controls. IC50 values are determined from viability measurements by non-linear regression using a four-parameter model.
(§2) IC50 values of representative compounds according to the invention measured with these assays in the indicated cell lines are presented in Table 46.

For another data set, the system named is Ba/F3 cells KRAS G12V. Kind of data set: Ba/F3 proliferation assay (KRAS G12V). Format: cell-based. The settings on record: Mus musculus, BaF3, 72 h, AlamarBlue viability. The method, then: Ba/F3 cells are ordered from DSMZ (ACC300, Lot17) and grown in RPMI-1640 (ATCC 30-2001)+10% FCS+10 ng/mL IL-3 at 37° C. in 5% […] atmosphere. Plasmids containing KRASG12 mutants (i.e. […], G12C, G12V) are obtained from GeneScript. To generate KRASG12-dependent Ba/F3 models, Ba/F3 cells are transduced with retroviruses containing vectors that harbor KRASG12 isoforms. Platinum-E cells (Cell Biolabs) are used for retrovirus packaging. Retrovirus is added to Ba/F3 cells. To ensure infection, 4 μg/mL polybrene is added and cells are spinfected. Infection efficiency is confirmed by measuring GFP-positive cells using a cell analyzer. Cells with an infection efficiency of 10% to 20% are further cultivated and puromycin selection with 1 μg/mL is initiated. As a control, parental Ba/F3 cells are used to show selection status. Selection is considered successful when parental Ba/F3 cells cultures died. To evaluate the transforming potential of KRASG12 mutations, the growth medium is no longer supplemented with IL-3. Ba/F3 cells harboring the empty vector are used as a control. Approximately ten days before conducting the experiments, puromycin is left out.
For proliferation assays, Ba/F3 cells are seeded into 384-well plates at 1.5×1 (M cells/60 μL in growth media (RPMI-1640+10% FCS). Compounds (10 mM stock in DMSO) are added at logarithmic dose series using the ECHO acoustic liquid handler system (Beckman Coulter), normalizing for added DMSO and including DMSO controls. All compound treatments are performed in technical duplicates. For the TO time point measurement, untreated cells are analyzed at the time of compound addition. Treated cells are incubated for 72 h at 37° C. with 5% CO2 and cell viability is measured in the PerkinElmer Envision Multimode Reader using AlamarBlue™ (ThermoFisher) viability stain. Viability (stated as percent of control) is defined as relative fluorescence units RFU of each well divided by the RFU of cells in DMSO controls. IC50 values are determined from viability measurements by non-linear regression using a four-parameter model.

The subject of a further data set is SK-CO-1 cells. Kind of data set: SK-CO-1 CTG proliferation assay (120 h) (CRC, G12V). Format: cell-based. Particulars: Homo sapiens. The method, then:
as §1, with “SK—CO-1” for “NCI-H727”, “HTB-39)” for “No. CRL-5815)”, “EMEM (Sigma M5650)+10%” for “RPMI ATCC-Formulation (PAN P04-18047)+10%”
as §2

A short description of data set [1]: Metabolic (microsomal) stability assay, human liver microsomes (HLM). The settings on record: 1 μM test compound, predicted clearance as percent of liver blood flow. It is filed as in vitro ADME. The protocol:
The metabolic degradation of the test compound is assayed at 37° C. with pooled liver microsomes (mouse (MLM), rat (RLM) or human (HLM)). The final incubation volume of 48 μL per time point contains TRIS buffer (pH 7.5; 0.1 M), magnesium chloride (6.5 mM), microsomal protein (0.5 mg/mL for mouse/rat, 1 mg/mL for human specimens) and the test compound at a final concentration of 1 μM. Following a short preincubation period at 37° C., the reactions are initiated by addition of 12 μL beta-nicotinamide adenine dinucleotide phosphate, reduced form (NADPH, 10 mM) and terminated by transferring an aliquot into solvent after different time points (0, 5, 15, 30, 60 min). Additionally, the NADPH-independent degradation is monitored in incubations without NADPH, terminated at the last time point by addition of acetonitrile. The quenched incubations are pelleted by centrifugation (4,000 rpm, 15 min). An aliquot of the supernatant is assayed by LC-MS/MS to quantify the concentration of parent compound in the individual samples.
In vitro intrinsic clearance (CLint,in vitro) is calculated from the time course of the disappearance of the test drug during the microsomal incubation. Each plot is fitted to the first-order elimination rate constant as C(t)=C0*exp(−ke*t), where C(t) and C0 are the concentration of unchanged test drug at incubation time t and that at preincubation and ke is the disappearance rate constant of the unchanged drug. Subsequently, CLint, in vitro (μL min^−1·amount protein) values are converted to predicted CLint,in vivo (mL min^−1·kg^−1) from incubation parameters according to the equation CLint, in vivo=CLint, in vitro×(incubation volume (mL)/amount protein (mg))×(amount protein (mg)/g liver tissue)×(liver weight/body wt.).
For better across species comparison the predicted clearance is expressed as percent of the liver blood flow [% QH] (mL min^−1·kg^−1) in the individual species. In general, high stability (corresponding to low % QH) of the compounds across species is desired.

pIC50: −log10 of the molar value. Where only a bound is given, the exact number is not on record here.

A word on the pIC50: it is the negative decadic logarithm of the IC50, by convention in mol/L. Higher therefore signals a small IC50.

On to `C[C@H](Oc1nc(-c2onc3c2CCC[C@@]32CCCc3sc(N)c(C#N)c32)nc2c1n(C)c(=O)n2[C@H]1CCOC1)[C@@H]1CCCN1C` [I-9], for which the pIC50 is 6.86 in the data set on NCI-H727 cells, 7.70 in the data set on Ba/F3 cells KRAS G12V and 7.12 in the data set on SK-CO-1 cells. Also, the “HLM QH” value in data set [1] is less than 24%.

Take `C[C@H](Oc1nc(-c2onc3c2CCC[C@@]32CCCc3sc(N)c(C#N)c32)nc2c1n(C)c(=O)n2C1CCOCC1)[C@@H]1CCCN1C` [I-10]: the pIC50 in the data set with NCI-H727 cells is 6.97; in the data set on Ba/F3 cells KRAS G12V, 7.80; in the data set on SK-CO-1 cells, 7.16. Besides, the “HLM QH” value in data set [1] was 33%.

For the compound `C[C@H](Oc1nc(-c2onc3c2CCC[C@@]32CCCc3sc(N)c(C#N)c32)nc2c1n(C)c(=O)n2[C@@H]1CCCOC1)[C@@H]1CCCN1C` [I-12], the results for the pIC50 in the data set on NCI-H727 cells, with Ba/F3 cells KRAS G12V and with SK-CO-1 cells were 8.52, 8.70 and 8.30, respectively. The “HLM QH” value in data set [1] is less than 24%.

As to `C[C@H](Oc1nc(-c2onc3c2CCC[C@@]32CCCc3sc(N)c(C#N)c32)nc2c1[nH]c(=O)n2[C@@H]1CCCOC1)[C@@H]1CCCN1C` [I-13], the figures for the negative logarithm of the IC50 (pIC50) with NCI-H727 cells, in the data set on Ba/F3 cells KRAS G12V and in the data set on SK-CO-1 cells were 7.89, 7.80 and 7.32, respectively. Besides, the “HLM QH” value in data set [1] is less than 24%.

`CO[C@@H]1C[C@@H]([C@H](C)Oc2nc(-c3onc4c3CCC[C@@]43CCCc4sc(N)c(C#N)c43)nc3c2n(C)c(=O)n3[C@@H]2CCCOC2)N(C)C1` [I-14]: the pIC50 with NCI-H727 cells is 8.22; in the data set with Ba/F3 cells KRAS G12V, 8.70; in the data set on SK-CO-1 cells, 8.15. In addition, the “HLM QH” value in data set [1] was 27%.

Take `C[C@H](Oc1nc(-c2onc3c2CCC[C@@]32CCCc3sc(N)c(C#N)c32)nc2c1n(C)c(=O)n2C12COC(C1)C2)[C@@H]1CCCN1C` [I-15]: the values for the pIC50 in the data set with NCI-H727 cells, in the data set with Ba/F3 cells KRAS G12V and with SK-CO-1 cells were 7.85, 7.96 and 7.44, respectively. Further, in data set [1], the “HLM QH” value is reported as less than 24%.

Regarding `CO[C@H]1C[C@H](n2c(=O)n(C)c3c(O[C@@H](C)[C@@H]4CCCN4C)nc(-c4onc5c4CCC[C@@]54CCCc5sc(N)c(C#N)c54)nc32)C1` [I-16], the pIC50 in the data set on NCI-H727 cells was 6.82; with Ba/F3 cells KRAS G12V it was 6.65; with SK-CO-1 cells, 6.61. Besides, in data set [1], the “HLM QH” value is recorded as less than 24%.

For `C[C@H](Oc1nc(-c2onc3c2CCC[C@@]32CCCc3sc(N)c(C#N)c32)nc2c1n(C)c(=O)n2[C@H]1CC2CCC1O2)[C@@H]1CCCN1C` (stereo partly shown) [I-17], the pIC50 in the data set on NCI-H727 cells was 7.32; with Ba/F3 cells KRAS G12V, 7.70; with SK-CO-1 cells it was 7.08. Moreover, in data set [1], the “HLM QH” value is recorded as less than 24%.

On to `C[C@H](Oc1nc(-c2onc3c2CCC[C@@]32CCCc3sc(N)c(C#N)c32)nc2c1n(C)c(=O)n2[C@@H]1CC2CCC1O2)[C@@H]1CCCN1C` (stereo partly shown) [I-18], for which the pIC50 with NCI-H727 cells was 6.77; in the data set with Ba/F3 cells KRAS G12V, 7.16; in the data set with SK-CO-1 cells, 6.44. For the same compound, the “HLM QH” value in data set [1] is on record as 31%.

Consider `C[C@H](Oc1nc(-c2onc3c2CCC[C@@]32CCCc3sc(N)c(C#N)c32)nc2c1n(C)c(=O)n2[C@H]1CCC[C@@H]1O)[C@@H]1CCCN1C` [I-19], for which the pIC50 was 6.94 with NCI-H727 cells, 6.61 with Ba/F3 cells KRAS G12V and 6.72 in the data set with SK-CO-1 cells. Further, the “HLM QH” value in data set [1] is less than 24%.

Regarding `C[C@H](Oc1nc(-c2onc3c2CCC[C@@]32CCCc3sc(N)c(C#N)c32)nc2c1n(C)c(=O)n2[C@@H]1CCOC1)[C@@H]1CCCN1C` [I-20], the results for the negative logarithm of the IC50 (pIC50) in the data set with NCI-H727 cells, in the data set with Ba/F3 cells KRAS G12V and with SK-CO-1 cells were 8.70, 8.70 and 8.52, respectively. Moreover, the “HLM QH” value in data set [1] was 26%.

As to `CCn1c(=O)n([C@@H]2CCOC2)c2nc(-c3onc4c3CCC[C@@]43CCCc4sc(N)c(C#N)c43)nc(O[C@@H](C)[C@@H]3CCCN3C)c21` [I-21], the values for the pIC50 in the data set with NCI-H727 cells, in the data set with Ba/F3 cells KRAS G12V and with SK-CO-1 cells were 8.40, 8.30 and 8.30, respectively. Further, in data set [1], the “HLM QH” value is given as 45%.

Consider `C[C@H](Oc1nc(-c2onc3c2CCC[C@@]32CCCc3sc(N)c(C#N)c32)nc2c1n(C)c(=O)n2[C@@H]1CCOC1)[C@@H]1C[C@@H](F)CN1C` [I-22], for which the pIC50 with NCI-H727 cells is 8.22; in the data set on Ba/F3 cells KRAS G12V it was 8.40; in the data set with SK-CO-1 cells, 8.05. Moreover, in data set [1], the “HLM QH” value was 56%.
